Experimental data reported in publication PMC12817916, “A small-molecule HSP90 inhibitor, NVP-HSP990, alleviates rotavirus infection” (Journal of Virology, 2025).

Tests used:
HSP90α = settings: targets the N-terminal of HSP90α; cited from earlier work
[1] = system: tight junctions (ZO-1, ZO-2, claudin-1) in Caco-2 cells; assay: Tight junction-associated proteins and structure (WB, IFA); assay type: cell-based, Human; settings: Wa or SA11 MOI = 3, 100 nM
Protocol: The cells were then washed with PBS, fixed in 4% paraformaldehyde for 20 min, followed by permeabilization in 0.5% Triton X-100 for 10 min and blocking with 5% BSA (Beyotime, China) for 1 h at room temperature. The cells were then incubated with rabbit anti-ZO-1 monoclonal antibody (CST, USA) (1:100) or rabbit anti-RV VP6 polyclonal antibodies (CUSABIO, China) (1:50) for 2 h at room temperature, washed twice with PBS, and incubated with Cy3-conjugated goat anti-rabbit antibodies (Beyotime, China) (1:500) for 1 h at room temperature. In some experiments, the cells were also stained with FITC-conjugated goat anti-RV antibodies (Virostat, USA) (1:100) for 1 h at room temperature and followed by 5 µg/mL 2-(4-amidinophenyl)-6-indolecarbamidine dihydrochloride (DAPI) (Sigma-Aldrich, USA) staining for 10 min. […] Minimal post-processing (image cropping and annotations) was applied through Adobe Illustrator 2019 (Adobe Systems, USA) to ensure readability. […]
MA104, Caco-2, and HT-29 cells were mock-infected with PBS, infected with RV Wa or SA11 strains (MOI = 3), or treated with 1 µM C16-PAF (C16) for 1 h. […] After protein quantification with a BCA kit (Beyotime, China), the protein samples were mixed with 25 µL 5× SDS loading buffer (Beyotime, China), boiled at 100°C for 5 min, chilled on ice, vortexed for seconds, and centrifuged at 12,000 × g for 3 min at room temperature. […]

Compound: COc1cccc(-c2cc(F)ccc2[C@H]2Cc3nc(N)nc(C)c3C(=O)N2)n1 [NVP-HSP990]
- IC50 (HSP90α): 0.6 nM
- structural disruption of tight junctions in RV infection ([1]; 18 h, ZO-1 immunostaining): effectively restored
- expression of tight junction-associated proteins ZO-1, ZO-2, and claudin-1 ([1]; 20 h, WB): facilitated the expression
